From the NIST ThermoML archive (doi:10.1021/acs.jced.7b00904)
± gives the expanded uncertainty stated by the source.

Experiment: wn = mass fraction of the nth substance listed
Settings: 295 K; for surface tension liquid-gas: Wilhelmi plate; for mass density / viscosity: 101.3 kPa, Liquid; for mass density: Buoyancy - hydrostatic balance; for viscosity: Concentric cylinders viscometry

N#C[S-].[K+] [potassium thiocyanate] + O
Settings | mass density [kg/m3] | surface tension liquid-gas [mN/m] | viscosity [mPa·s]
w1 = 0.03 | 1013 ± 6 | 67.25 ± 1.1 | 0.834 ± 0.07
w1 = 0.05 | 1022 ± 6 | 61.98 ± 5.4 | 0.845 ± 0.07
w1 = 0.07 | 1031 ± 6 | 58.59 ± 13 | 0.825 ± 0.07
w1 = 0.1 | 1047 ± 6 | 57.2 ± 13 | 0.843 ± 0.07
w1 = 0.2 | 1100 ± 6 | 57.79 ± 4.6 | 0.881 ± 0.07
w1 = 0.3 | 1157 ± 6 | – | 0.916 ± 0.07
w1 = 0.4 | 1218 ± 6 | 55.45 ± 5.8 | 1.101 ± 0.07
w1 = 0.5 | 1283 ± 6 | 56.47 ± 5.4 | 1.321 ± 0.071
w1 = 0.6 | 1353 ± 6 | 62.93 ± 3.9 | 1.979 ± 0.071
w1 = 0.65 | 1392 ± 6 | 73.26 ± 1.2 | 2.588 ± 0.073
w1 = 0.68 | 1414 ± 6 | 74.62 ± 1.2 | 3.125 ± 0.074
